Among the data in US20120252741A1, “NOVEL SEMI-SYNTHETIC GLYCOPEPTIDES AS ANTIBACTERIAL AGENTS” (priority 2008, published 2012) are MIC values, retold here.

What all share (format): cell-based
In experiment [1] the test system is Enterococcus faecium 752 (VRE, Van A). Description: MIC, broth microdilution, EFcm 752. The conditions noted are these: VRE, Van A, class symbols, read-out: MIC E FCM 752. The protocol:
(§1) Antibacterial activity in vitro is investigated by broth microdilution method in Meuller-Hinton broth as recommended by NCCLS. All strains tested are clinical isolates either sensitive or resistant to natural glycopeptides. MIC values were determined using the CLSI-recommended broth microdilution procedure (Clinical and Laboratory Standards Institute, Methods for Dilution Antimicrobial Susceptibility Tests for Bacteria That Grow Aerobically; Approved Standard-Seventh Edition.). Automated liquid handlers (Multidrop 384, Labsystems, Helsinki, Finland; Biomek 2000 and Multimek 96, Beckman Coulter, Fullerton Calif.) were used to conduct serial dilutions and liquid transfers. The MIC value for vancomycin is given for comparison. The abbreviations for organisms tested are as follow: SA 100—Staphylococcus aureus 100 (ATCC 29213); SA 757—Staphylococcus aureus 757 (MRSA); SA 2012—Staphylococcus aureus 2012 (VISA); SE 835—Staphylococcus epidermidis 835; SE 831—Staphylococcus epidermidis 831 (MRSE); EFc 101—Enterococcus faecalis 101 (ATCC 29212); EFc 848—Enterococcus faecalis 848 (VRE, Van A); EFcm 800—Enterococcus faecium 800; EFcm 752—Enterococcus faecium 752 (VRE, Van A); SPNE 1195—Streptococcus pneumoniae 1195 (ATCC 49619); SPY 712—Streptococcus pyogenes 712.
For orientation: In broth dilution the organism is exposed to a series of concentrations in liquid medium.

Experiment [2] relates to Enterococcus faecalis 101 (ATCC 29212). Description: MIC, broth microdilution, EFc 101. The conditions noted are these: Enterococcus faecalis, ATCC29212, class symbols, read-out: MIC E FC 101. The protocol: as §1
The test system of a further experiment is Enterococcus faecium 800. Description: MIC, broth microdilution, EFcm 800. The conditions noted are these: Enterococcus faecium, 800, class symbols, read-out: MIC E FCM 800. As for the experimental part:
as §1

In experiment [3] the test system is Staphylococcus epidermidis 835. Description: MIC, broth microdilution, SE 835. The conditions noted are these: Staphylococcus epidermidis, 835, class symbols, read-out: MIC SE 835. The protocol:
as §1

The test system of experiment [4] is Staphylococcus aureus 100 (ATCC 29213). Description: MIC, broth microdilution, SA 100. The settings on record: Staphylococcus aureus, ATCC29213, class symbols, read-out: MIC SA 100. As for the experimental part: as §1
For experiment [5], the system named is Streptococcus pneumoniae 1195 (ATCC 49619). Description: MIC, broth microdilution, SPNE 1195. The conditions noted are these: Streptococcus pneumoniae, ATCC49619, class symbols, read-out: MIC S PNE 1195. As for the experimental part:
as §1

Experiment [6] deals with Streptococcus pyogenes 712. Description: MIC, broth microdilution, SPY 712. The settings on record: Streptococcus pyogenes, 712, class symbols, read-out: MIC S PYO 712. The protocol:
as §1

Experiment [7] has as its system Staphylococcus aureus 2012 (VISA). Description: MIC, broth microdilution, SA 2012. The conditions noted are these: read-out: MIC SA 2012. The protocol:
as §1

Experiment [8] deals with Staphylococcus epidermidis 831 (MRSE). The experiment can be described thus: MIC, broth microdilution, SE 831. The conditions noted are these: Staphylococcus epidermidis, read-out: MIC SE 831. As for the experimental part: as §1
The test system of experiment [9] is Enterococcus faecalis 848 (VRE, Van A). Description: MIC, broth microdilution, EFc 848. The conditions noted are these: VRE, Van A, class symbols, read-out: MIC E FC 848. The protocol: as §1
Experiment [10] deals with Staphylococcus aureus 757 (MRSA). The experiment can be described thus: MIC, broth microdilution, SA 757. The conditions noted are these: read-out: MIC SA 757. The protocol: as §1
Setting [11] is: Table 2, in the presence of 0.002% Polysorbate 80.
Where [12] appears, read: Table 2, in the presence of 0.002% Polysorbate 80, class symbols.

Values after ≈ are worked out from the molar mass of the structure shown. Where two headings read alike, the source gives them in different places.

One may read the MIC as the smallest concentration in the dilution series that meets the test's criterion for growth inhibition.

As to `CN[C@H](CC(C)C)C(=O)N[C@H]1C(=O)N[C@@H](CC(=O)NC(=O)c2ccc(OC)cc2)C(=O)N[C@H]2C(=O)N[C@H]3C(=O)N[C@H](C(=O)N[C@H](C(=O)NC4C5CC6CC(C5)CC4C6)c4cc(O)cc(O)c4-c4cc3ccc4O)[C@H](O)c3ccc(c(Cl)c3)Oc3cc2cc(c3O[C@@H]2O[C@H](CO)[C@@H](O)[C@H](O)[C@H]2O[C@H]2C[C@](C)(N)[C@H](O)[C@H](C)O2)Oc2ccc(cc2Cl)[C@H]1O` (stereo partly drawn) [Compound 62], the MIC in [1] (setting [11]) was 0.5 to 1 µg/mL; in [2] (setting [11]), 0.01 to 0.5 µg/mL; in the experiment with Enterococcus faecium 800 (setting [11]), 0.01 to 0.5 µg/mL; in experiment [3] (setting [11]) it was 0.01 to 0.5 µg/mL; in experiment [4] (setting [11]), 0.01 to 0.5 µg/mL; in experiment [5] (setting [11]), 0.01 to 0.5 µg/mL. Besides, the MIC in [6] (setting [11]) lay within 0.01 to 0.5 µg/mL; in experiment [7] (setting [12]) it was 2 to 4 µg/mL; in [8] (setting [12]) it was 0.01 to 0.5 µg/mL; in [9] (setting [11]), 4 to 8 µg/mL; in experiment [10] (setting [12]), 0.01 to 0.5 µg/mL.

Take `CNCCOc1cc(C(=O)NC(=O)C[C@@H]2NC(=O)[C@H](NC(=O)[C@@H](CC(C)C)NC)[C@H](O)c3ccc(c(Cl)c3)Oc3cc4cc(c3O[C@@H]3O[C@H](CO)[C@@H](O)[C@H](O)[C@H]3O)Oc3ccc(cc3Cl)[C@@H](O)[C@@H]3NC(=O)[C@H](NC(=O)[C@@H]4NC2=O)c2ccc(O)c(c2)-c2c(O)cc(O)cc2[C@@H](C(=O)NC2C4CC5CC(C4)CC2C5)NC3=O)cc(OCCNC)c1OCCNC` (stereo partly drawn) [Compound 162]: the MIC in experiment [1] (setting [11]) lay within 8 to 16 µg/mL; in experiment [2] (setting [11]), 1 to 2 µg/mL; in the experiment on Enterococcus faecium 800 (setting [11]), 0.5 to 1 µg/mL; in experiment [3] (setting [11]), 0.5 to 1 µg/mL; in [4] (setting [11]), 2 to 4 µg/mL; in experiment [5] (setting [11]), 1 to 2 µg/mL. Besides, the MIC is 0.01 to 0.5 µg/mL in experiment [6] (setting [11]); 2 to 4 µg/mL in [7] (setting [12]); 0.01 to 0.5 µg/mL in experiment [8] (setting [12]); over 16 µg/mL in experiment [9] (setting [11]); 1 to 2 µg/mL in [10] (setting [12]).

`CN[C@H](CC(C)C)C(=O)N[C@H]1C(=O)N[C@@H](CC(=O)NC(=O)c2ccc(OCCOC)cc2)C(=O)N[C@H]2C(=O)N[C@H]3C(=O)N[C@H](C(=O)N[C@H](C(=O)NC4C5CC6CC(C5)CC4C6)c4cc(O)cc(O)c4-c4cc3ccc4O)[C@H](O)c3ccc(c(Cl)c3)Oc3cc2cc(c3O[C@@H]2O[C@H](CO)[C@@H](O)[C@H](O)[C@H]2O[C@H]2C[C@](C)(N)[C@H](O)[C@H](C)O2)Oc2ccc(cc2Cl)[C@H]1O` (stereo partly drawn) [Compound 65]: the MIC in experiment [1] (setting [11]) was in the range of 1 to 2 µg/mL; in experiment [2] (setting [11]), 0.01 to 0.5 µg/mL; in the experiment with Enterococcus faecium 800 (setting [11]), 0.01 to 0.5 µg/mL; in experiment [3] (setting [11]), 0.5 to 1 µg/mL; in experiment [4] (setting [11]), 0.5 to 1 µg/mL; in experiment [5] (setting [11]), 0.01 to 0.5 µg/mL. Further, the MIC in experiment [6] (setting [11]) was in the range of 0.01 to 0.5 µg/mL; in [7] (setting [12]) it was 2 to 4 µg/mL; in [8] (setting [12]) it was 0.01 to 0.5 µg/mL; in experiment [9] (setting [11]), 4 to 8 µg/mL; in [10] (setting [12]), 0.01 to 0.5 µg/mL.

As for `CCCCCCCCC(=O)NC(=O)C[C@@H]1NC(=O)[C@H](NC(=O)[C@@H](CC(C)C)NC)[C@H](O)c2ccc(c(Cl)c2)Oc2cc3cc(c2O[C@@H]2O[C@H](CO)[C@@H](O)[C@H](O)[C@H]2O[C@H]2C[C@](C)(N)[C@H](O)[C@H](C)O2)Oc2ccc(cc2Cl)[C@@H](O)[C@@H]2NC(=O)[C@H](NC(=O)[C@@H]3NC1=O)c1ccc(O)c(c1)-c1c(O)cc(O)cc1[C@@H](C(=O)NC1C3CC4CC(C3)CC1C4)NC2=O` (stereo partly drawn) [Compound 42], the MIC (in experiment [1] (Table 1); in experiment [2] (Table 1); in the experiment on Enterococcus faecium 800 (Table 1); in experiment [3] (Table 1); in experiment [4] (Table 1); in experiment [5] (Table 1)) was 0.01 to 0.5 µg/mL (≈ 0.0058 to 0.29 µM) in each case. The MIC in [6] (Table 1) lay within 0.01 to 0.5 µg/mL (≈ 0.0058 to 0.29 µM); in experiment [7] (Table 1, class symbols) it was 1 to 2 µg/mL (≈ 0.58 to 1.16 µM); in experiment [8] (Table 1, class symbols), 0.01 to 0.5 µg/mL (≈ 0.0058 to 0.29 µM); in [9] (Table 1), 1 to 2 µg/mL (≈ 0.58 to 1.16 µM); in [10] (Table 1, class symbols) it was 0.01 to 0.5 µg/mL (≈ 0.0058 to 0.29 µM).

In the case of `CN[C@H](CC(C)C)C(=O)N[C@H]1C(=O)N[C@@H](CC(=O)NC(=O)c2ccc(OCCCN)c(OCCCN)c2)C(=O)N[C@H]2C(=O)N[C@H]3C(=O)N[C@H](C(=O)N[C@H](C(=O)NC4C5CC6CC(C5)CC4C6)c4cc(O)cc(O)c4-c4cc3ccc4O)[C@H](O)c3ccc(c(Cl)c3)Oc3cc2cc(c3O[C@@H]2O[C@H](CO)[C@@H](O)[C@H](O)[C@H]2O[C@H]2C[C@](C)(N)[C@H](O)[C@H](C)O2)Oc2ccc(cc2Cl)[C@H]1O` (stereo partly drawn) [Compound 166], the MIC in [1] (setting [11]) lay in the range of 2 to 4 µg/mL; in experiment [2] (setting [11]), 0.01 to 0.5 µg/mL; in the experiment with Enterococcus faecium 800 (setting [11]), 0.01 to 0.5 µg/mL; in experiment [3] (setting [11]), 0.5 to 1 µg/mL; in experiment [4] (setting [11]), 0.01 to 0.5 µg/mL; in experiment [5] (setting [11]) it was 0.01 to 0.5 µg/mL. The MIC in experiment [6] (setting [11]) is 0.01 to 0.5 µg/mL; in [7] (setting [12]) it was 1 to 2 µg/mL; in [8] (setting [12]) it was 0.01 to 0.5 µg/mL; in [9] (setting [11]), over 16 µg/mL; in [10] (setting [12]), 0.01 to 0.5 µg/mL.

Turning to `CCOc1ccc(C(=O)NC(=O)C[C@@H]2NC(=O)[C@H](NC(=O)[C@@H](CC(C)C)NC)[C@H](O)c3ccc(c(Cl)c3)Oc3cc4cc(c3O[C@@H]3O[C@H](CO)[C@@H](O)[C@H](O)[C@H]3O[C@H]3C[C@](C)(N)[C@H](O)[C@H](C)O3)Oc3ccc(cc3Cl)[C@@H](O)[C@@H]3NC(=O)[C@H](NC(=O)[C@@H]4NC2=O)c2ccc(O)c(c2)-c2c(O)cc(O)cc2[C@@H](C(=O)NC2C4CC5CC(C4)CC2C5)NC3=O)cc1` (stereo partly drawn) [Compound 63], the MIC in [1] (setting [11]) was 1 to 2 µg/mL; in [2] (setting [11]), 0.01 to 0.5 µg/mL; with Enterococcus faecium 800 (setting [11]) it was 0.01 to 0.5 µg/mL; in experiment [3] (setting [11]), 0.01 to 0.5 µg/mL; in experiment [4] (setting [11]), 0.01 to 0.5 µg/mL; in experiment [5] (setting [11]), 0.01 to 0.5 µg/mL. In addition, the MIC in [6] (setting [11]) lay within 0.01 to 0.5 µg/mL; in experiment [7] (setting [12]), 2 to 4 µg/mL; in [8] (setting [12]), 0.01 to 0.5 µg/mL; in experiment [9] (setting [11]), 4 to 8 µg/mL; in experiment [10] (setting [12]), 0.01 to 0.5 µg/mL.
